Paper PMC7497403, “Development of Potent PfCLK3 Inhibitors Based on TCMDC-135051 as a New Class of Antimalarials” (Journal of Medicinal Chemistry, 2020)

Tests used:
Experiment in all cases: Kinase screen
Assay type in all cases: biochemical
EPH-A2 = EPH-A2 (Homo sapiens, UniProt P29317)
Description: (§1) With verapamil used as a positive control.
(§2) V. Distribution coefficient (LogD7.4)

CSK = CSK (Homo sapiens, UniProt P41240)
Description: as §1, §2

Lck = Lck (Homo sapiens, UniProt P06239)
Description: as §1, §2

BRK = BRK (Homo sapiens, UniProt Q13882)
Description: as §1, §2

TLK1 = TLK1 (Homo sapiens, UniProt Q9UKI8)
Description: as §1, §2

ROCK 2 = ROCK 2 (Homo sapiens, UniProt O75116)
Description: as §1, §2

TGFBR1 = TGFBR1 (Homo sapiens, UniProt P36897)
Description: as §1, §2

IRAK1 = IRAK1 (Homo sapiens, UniProt P51617)
IRAK1, sequence (P51617 whole entry): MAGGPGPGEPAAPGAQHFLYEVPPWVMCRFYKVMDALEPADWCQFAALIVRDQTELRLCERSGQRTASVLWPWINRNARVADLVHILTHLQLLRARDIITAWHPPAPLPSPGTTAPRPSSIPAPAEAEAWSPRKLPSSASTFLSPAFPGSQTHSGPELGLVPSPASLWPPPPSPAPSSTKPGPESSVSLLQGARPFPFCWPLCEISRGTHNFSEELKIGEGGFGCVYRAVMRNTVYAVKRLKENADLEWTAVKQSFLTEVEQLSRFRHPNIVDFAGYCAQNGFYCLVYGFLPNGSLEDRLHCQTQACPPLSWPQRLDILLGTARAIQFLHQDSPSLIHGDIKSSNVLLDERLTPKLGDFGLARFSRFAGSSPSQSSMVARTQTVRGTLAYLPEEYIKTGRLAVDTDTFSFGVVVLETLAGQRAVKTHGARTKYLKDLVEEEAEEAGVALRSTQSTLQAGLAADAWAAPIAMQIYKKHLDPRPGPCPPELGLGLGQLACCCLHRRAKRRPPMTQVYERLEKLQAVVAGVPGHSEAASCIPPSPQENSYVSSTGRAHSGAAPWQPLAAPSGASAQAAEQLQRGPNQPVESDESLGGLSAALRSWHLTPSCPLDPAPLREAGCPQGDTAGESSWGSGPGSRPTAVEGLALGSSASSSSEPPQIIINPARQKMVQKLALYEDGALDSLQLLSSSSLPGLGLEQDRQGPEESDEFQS
Description: as §1, §2

NUAK1 = NUAK1 (Homo sapiens, UniProt O60285)
Description: as §1, §2

NEK2a = NEK2a (Homo sapiens, UniProt P51955)
Description: as §1, §2

PRAK = PRAK (Homo sapiens, UniProt Q8IW41)
Description: as §1, §2

ABL = ABL (Homo sapiens, UniProt P00519)
Description: as §1, §2

IKKe = IKKe (Homo sapiens, UniProt Q14164)
Description: as §1, §2

PAK2 = PAK2 (Homo sapiens, UniProt Q13177)
Description: as §1, §2

FGF-R1 = FGF-R1 (Homo sapiens, UniProt P11362)
FGF-R1, sequence (P11362 22-822): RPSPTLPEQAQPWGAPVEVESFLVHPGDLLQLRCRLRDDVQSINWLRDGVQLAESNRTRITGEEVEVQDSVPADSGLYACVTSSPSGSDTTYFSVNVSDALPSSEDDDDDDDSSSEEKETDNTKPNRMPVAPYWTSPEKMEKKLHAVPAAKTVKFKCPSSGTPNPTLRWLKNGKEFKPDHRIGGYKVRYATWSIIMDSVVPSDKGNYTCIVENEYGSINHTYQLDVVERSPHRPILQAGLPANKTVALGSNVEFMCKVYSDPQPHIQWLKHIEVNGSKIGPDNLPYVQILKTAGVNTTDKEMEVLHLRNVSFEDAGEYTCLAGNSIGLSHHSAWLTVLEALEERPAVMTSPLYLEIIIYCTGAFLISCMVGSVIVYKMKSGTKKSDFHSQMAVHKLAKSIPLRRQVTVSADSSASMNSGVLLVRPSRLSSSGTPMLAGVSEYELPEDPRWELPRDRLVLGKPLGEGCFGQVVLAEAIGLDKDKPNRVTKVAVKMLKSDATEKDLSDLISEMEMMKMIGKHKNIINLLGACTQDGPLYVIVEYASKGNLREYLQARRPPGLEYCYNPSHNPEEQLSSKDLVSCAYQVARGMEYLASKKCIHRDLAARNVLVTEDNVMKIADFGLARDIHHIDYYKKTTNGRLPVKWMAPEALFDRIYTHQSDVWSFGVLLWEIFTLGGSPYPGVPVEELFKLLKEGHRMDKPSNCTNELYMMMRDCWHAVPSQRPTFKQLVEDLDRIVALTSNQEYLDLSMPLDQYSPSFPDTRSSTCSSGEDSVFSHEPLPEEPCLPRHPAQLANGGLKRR
Description: as §1, §2

PIM1 = PIM1 (Homo sapiens, UniProt P11309)
Description: as §1, §2

PKCγ = PKCγ (Homo sapiens, UniProt P05129)
Description: as §1, §2

ERK1 = ERK1 (Homo sapiens, UniProt P27361)
Description: as §1, §2

JNK2 = JNK2 (Homo sapiens, UniProt P45984)
Description: as §1, §2

RSK2 = RSK2 (Homo sapiens, UniProt P51812)
Description: as §1, §2

MPSK1 = MPSK1 (Homo sapiens, UniProt O75716)
Description: as §1, §2

MST3 = MST3 (Homo sapiens, UniProt Q9Y6E0)
Description: as §1, §2

STK33 = STK33 (Homo sapiens, UniProt Q9BYT3)
Description: as §1, §2

CDK2-Cyclin A = CDK2-Cyclin A (Homo sapiens, UniProt P24941)
Description: as §1, §2

LKB1 = LKB1 (Homo sapiens, UniProt Q15831)
LKB1, sequence (Q15831 whole entry): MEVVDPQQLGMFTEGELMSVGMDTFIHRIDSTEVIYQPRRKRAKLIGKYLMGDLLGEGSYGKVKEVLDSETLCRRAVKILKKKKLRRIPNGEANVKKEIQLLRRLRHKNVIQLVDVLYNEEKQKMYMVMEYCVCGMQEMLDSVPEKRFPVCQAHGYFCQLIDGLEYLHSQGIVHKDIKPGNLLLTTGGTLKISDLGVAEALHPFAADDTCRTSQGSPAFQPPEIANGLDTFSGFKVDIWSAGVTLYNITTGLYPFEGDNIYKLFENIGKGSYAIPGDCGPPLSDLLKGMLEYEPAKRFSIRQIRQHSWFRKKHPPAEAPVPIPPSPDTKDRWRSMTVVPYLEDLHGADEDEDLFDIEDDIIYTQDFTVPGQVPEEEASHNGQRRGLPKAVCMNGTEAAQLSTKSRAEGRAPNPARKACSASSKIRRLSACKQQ
LKB1, sequence (Q7RTN6 whole entry partner): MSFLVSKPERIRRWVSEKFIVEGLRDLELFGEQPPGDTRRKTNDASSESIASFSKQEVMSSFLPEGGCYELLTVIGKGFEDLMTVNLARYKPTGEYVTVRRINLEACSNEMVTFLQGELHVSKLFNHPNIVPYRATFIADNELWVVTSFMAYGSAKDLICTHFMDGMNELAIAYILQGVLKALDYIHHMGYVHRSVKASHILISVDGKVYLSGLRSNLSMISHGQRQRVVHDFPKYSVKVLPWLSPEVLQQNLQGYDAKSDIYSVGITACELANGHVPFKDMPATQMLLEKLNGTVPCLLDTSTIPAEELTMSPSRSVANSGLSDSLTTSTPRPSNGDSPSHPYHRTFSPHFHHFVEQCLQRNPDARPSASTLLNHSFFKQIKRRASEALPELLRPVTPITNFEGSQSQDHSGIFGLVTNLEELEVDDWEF
LKB1, sequence (Q9Y376 whole entry partner): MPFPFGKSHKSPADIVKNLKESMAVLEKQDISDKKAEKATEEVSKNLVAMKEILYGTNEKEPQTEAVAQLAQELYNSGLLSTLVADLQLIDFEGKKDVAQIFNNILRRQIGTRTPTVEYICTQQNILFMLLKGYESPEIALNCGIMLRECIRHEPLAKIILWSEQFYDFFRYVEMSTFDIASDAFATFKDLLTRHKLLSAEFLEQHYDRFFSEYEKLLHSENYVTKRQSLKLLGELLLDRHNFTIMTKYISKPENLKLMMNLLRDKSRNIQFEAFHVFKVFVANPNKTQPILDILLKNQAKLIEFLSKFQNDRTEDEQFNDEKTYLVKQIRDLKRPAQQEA
Description: as §1, §2

p38g MAPK = p38g MAPK (Homo sapiens, UniProt P53778)
Description: as §1, §2

CK1γ2 = CK1γ2 (Homo sapiens, UniProt P78368)
Description: as §1, §2

CAMKKb = CAMKKb (Homo sapiens, UniProt Q96RR4)
Description: as §1, §2

EPH-B1 = EPH-B1 (Homo sapiens, UniProt P54762)
Description: as §1, §2

SRPK1 = SRPK1 (Homo sapiens, UniProt Q96SB4)
Description: as §1, §2

TAO1 = TAO1 (Homo sapiens, UniProt Q7L7X3)
Description: as §1, §2

PKBb = PKBb (Homo sapiens, UniProt P31751)
Description: as §1, §2

AMPK (hum) = AMPK (hum) (Homo sapiens, UniProt Q13131)
Description: as §1, §2

TTK = TTK (Homo sapiens, UniProt P33981)
Description: as §1, §2

ASK1 = ASK1 (Homo sapiens, UniProt Q99683)
Description: as §1, §2

IRR = IRR (Homo sapiens, UniProt P14616)
Description: as §1, §2

TTBK2 = TTBK2 (Homo sapiens, UniProt Q6IQ55)
Description: as §1, §2

OSR1 = OSR1 (Homo sapiens, UniProt O95747)
Description: as §1, §2

IGF-1R = IGF-1R (Homo sapiens, UniProt P08069)
Description: as §1, §2

BTK = BTK (Homo sapiens, UniProt Q06187)
Description: as §1, §2

p38d MAPK = p38d MAPK (Homo sapiens, UniProt O15264)
Description: as §1, §2

PKCz = PKCz (Homo sapiens, UniProt Q05513)
Description: as §1, §2

MSK1 = MSK1 (Homo sapiens, UniProt O75582)
MSK1, sequence (O75582 whole entry): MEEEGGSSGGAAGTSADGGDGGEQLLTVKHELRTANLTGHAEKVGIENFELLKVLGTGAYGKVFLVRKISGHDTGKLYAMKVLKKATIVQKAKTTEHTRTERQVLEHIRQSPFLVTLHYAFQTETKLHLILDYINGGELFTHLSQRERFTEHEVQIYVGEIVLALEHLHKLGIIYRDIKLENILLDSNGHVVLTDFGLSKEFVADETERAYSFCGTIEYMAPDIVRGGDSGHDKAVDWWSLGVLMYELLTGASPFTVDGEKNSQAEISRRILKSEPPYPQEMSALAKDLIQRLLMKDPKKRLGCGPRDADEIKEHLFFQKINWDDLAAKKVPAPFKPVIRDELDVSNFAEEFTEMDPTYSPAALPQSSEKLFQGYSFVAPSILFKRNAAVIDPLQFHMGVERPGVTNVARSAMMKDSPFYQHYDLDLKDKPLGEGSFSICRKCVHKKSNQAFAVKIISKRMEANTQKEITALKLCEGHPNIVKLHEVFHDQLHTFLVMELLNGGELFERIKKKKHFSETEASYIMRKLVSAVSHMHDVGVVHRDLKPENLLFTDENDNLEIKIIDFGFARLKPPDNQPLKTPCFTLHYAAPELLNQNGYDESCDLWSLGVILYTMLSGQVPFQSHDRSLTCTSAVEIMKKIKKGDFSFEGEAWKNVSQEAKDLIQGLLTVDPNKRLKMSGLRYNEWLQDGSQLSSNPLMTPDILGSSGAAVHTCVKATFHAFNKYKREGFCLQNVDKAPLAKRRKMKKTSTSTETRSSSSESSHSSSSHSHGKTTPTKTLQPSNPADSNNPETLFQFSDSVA
Description: as §1, §2

TTBK1 = TTBK1 (Homo sapiens, UniProt Q5TCY1)
TTBK1, sequence (Q5TCY1 whole entry): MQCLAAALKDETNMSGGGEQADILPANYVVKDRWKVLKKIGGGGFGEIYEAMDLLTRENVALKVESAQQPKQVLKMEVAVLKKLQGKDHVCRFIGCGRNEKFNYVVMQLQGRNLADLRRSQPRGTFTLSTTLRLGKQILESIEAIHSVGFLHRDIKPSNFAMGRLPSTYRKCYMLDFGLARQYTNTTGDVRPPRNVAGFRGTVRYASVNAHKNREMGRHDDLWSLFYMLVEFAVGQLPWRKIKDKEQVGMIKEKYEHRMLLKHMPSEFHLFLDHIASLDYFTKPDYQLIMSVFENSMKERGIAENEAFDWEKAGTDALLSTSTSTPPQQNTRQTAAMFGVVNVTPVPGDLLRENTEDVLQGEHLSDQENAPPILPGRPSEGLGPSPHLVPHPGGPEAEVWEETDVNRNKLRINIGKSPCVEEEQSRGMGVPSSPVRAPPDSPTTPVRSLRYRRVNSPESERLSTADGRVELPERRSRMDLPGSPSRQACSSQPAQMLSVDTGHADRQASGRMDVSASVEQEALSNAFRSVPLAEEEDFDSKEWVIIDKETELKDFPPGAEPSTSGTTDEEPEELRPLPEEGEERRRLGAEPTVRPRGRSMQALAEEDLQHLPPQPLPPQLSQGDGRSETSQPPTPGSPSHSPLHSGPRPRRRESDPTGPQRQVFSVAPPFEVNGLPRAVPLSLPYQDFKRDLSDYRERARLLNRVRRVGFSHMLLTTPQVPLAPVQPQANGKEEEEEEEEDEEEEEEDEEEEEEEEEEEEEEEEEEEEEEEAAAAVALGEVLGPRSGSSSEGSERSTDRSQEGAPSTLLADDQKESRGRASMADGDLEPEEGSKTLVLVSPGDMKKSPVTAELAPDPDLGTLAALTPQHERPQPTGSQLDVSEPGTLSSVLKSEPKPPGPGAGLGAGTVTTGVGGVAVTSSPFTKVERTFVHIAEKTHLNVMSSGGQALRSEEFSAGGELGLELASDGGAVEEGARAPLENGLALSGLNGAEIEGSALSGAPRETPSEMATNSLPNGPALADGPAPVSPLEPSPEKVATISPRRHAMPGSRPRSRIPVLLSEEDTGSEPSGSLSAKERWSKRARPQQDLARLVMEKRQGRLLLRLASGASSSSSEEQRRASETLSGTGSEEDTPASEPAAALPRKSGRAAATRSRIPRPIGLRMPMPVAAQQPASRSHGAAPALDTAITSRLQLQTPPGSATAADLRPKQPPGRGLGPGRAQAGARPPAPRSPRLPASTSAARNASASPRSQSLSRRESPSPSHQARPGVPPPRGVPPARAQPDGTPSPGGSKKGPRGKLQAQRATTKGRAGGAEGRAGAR
Description: as §1, §2

MEKK1 = MEKK1 (Homo sapiens, UniProt Q13233)
Description: as §1, §2

VEG-FR = VEG-FR (Homo sapiens, UniProt P17948)
Description: as §1, §2

CCN(CC)Cc1ccc(OC)c(-c2cc3c(-c4ccc(C(=O)O)c(C(C)C)c4)ccnc3[nH]2)c1 [analogue 1, 4-(2-(5-((Diethylamino)methyl)-2-methoxyphenyl)-1H-pyrrolo[2,3-b]pyridin-4-yl)-2-isopropylbenzoic Acid]
activity at 1 µM (EPH-A2): 64%
activity at 1 µM (CSK): 74%
activity at 1 µM (Lck): 39%
activity at 1 µM (BRK): 33%
activity at 1 µM (TLK1): 106%
activity at 1 µM (ROCK 2): 92%
activity at 1 µM (TGFBR1): 6%
activity at 1 µM (IRAK1): 6%
activity at 1 µM (NUAK1): 18%
activity at 1 µM (NEK2a): 87%
activity at 1 µM (PRAK): 88%
activity at 1 µM (ABL): 59%
activity at 1 µM (IKKe): 52%
activity at 1 µM (PAK2): 84%
activity at 1 µM (FGF-R1): 50%
activity at 1 µM (PIM1): 107%
activity at 1 µM (PKCγ): 114%
activity at 1 µM (ERK1): 100%
activity at 1 µM (JNK2): 62%
activity at 1 µM (RSK2): 87%
activity at 1 µM (MPSK1): 104%
activity at 1 µM (MST3): 62%
activity at 1 µM (STK33): 44%
activity at 1 µM (CDK2-Cyclin A): 12%
activity at 1 µM (LKB1): 115%
activity at 1 µM (p38g MAPK): 105%
activity at 1 µM (CK1γ2): 93%
activity at 1 µM (CAMKKb): 2%
activity at 1 µM (EPH-B1): 124%
activity at 1 µM (SRPK1): 92%
activity at 1 µM (TAO1): 39%
activity at 1 µM (PKBb): 96%
activity at 1 µM (AMPK (hum)): 30%
activity at 1 µM (TTK): 86%
activity at 1 µM (ASK1): 91%
activity at 1 µM (IRR): 101%
activity at 1 µM (TTBK2): 114%
activity at 1 µM (OSR1): 38%
activity at 1 µM (IGF-1R): 51%
activity at 1 µM (BTK): 119%
activity at 1 µM (p38d MAPK): 117%
activity at 1 µM (PKCz): 121%
activity at 1 µM (MSK1): 99%
activity at 1 µM (TTBK1): 102%
activity at 1 µM (MEKK1): 112%
activity at 1 µM (VEG-FR): 80%
